The text below walks through data of ChEMBL document CHEMBL3286098, “α-Methylated simplified resiniferatoxin (sRTX) thiourea analogues as potent and stereospecific TRPV1 antagonists” (Bioorg Med Chem Lett, 2014).

For test [1], the target named is T1, Transient receptor potential cation channel subfamily V member 1 (Rattus norvegicus, UniProt O35433). Nature of the test: Displacement of [3H]RTX from rat TRPV1 after 60 mins by competitive binding assay. On the technique in general: Displacement assays read how much labelled ligand stays bound in the presence of the test substance.
In test [2] the target is T1, Transient receptor potential cation channel subfamily V member 1. As to the kind of experiment: Antagonist activity at rat TRPV1 heterologously expressed in CHO cells assessed as inhibition of capsaicin-induced [45Ca2+] uptake by liquid scintillation counting. It counts as cell-based.
The target in test [3] is Transient receptor potential cation channel subfamily V member 1 (Rattus norvegicus) (UniProt O35433). Nature of the test: Agonist activity at rat TRPV1 heterologously expressed in CHO cells assessed as […] [45Ca2+] uptake by liquid scintillation counting. It counts as cell-based.

Active and inactive are the calls of the source. The calls are words filed in the database; no cut-off is given here.

T1 sequence (O35433 whole entry): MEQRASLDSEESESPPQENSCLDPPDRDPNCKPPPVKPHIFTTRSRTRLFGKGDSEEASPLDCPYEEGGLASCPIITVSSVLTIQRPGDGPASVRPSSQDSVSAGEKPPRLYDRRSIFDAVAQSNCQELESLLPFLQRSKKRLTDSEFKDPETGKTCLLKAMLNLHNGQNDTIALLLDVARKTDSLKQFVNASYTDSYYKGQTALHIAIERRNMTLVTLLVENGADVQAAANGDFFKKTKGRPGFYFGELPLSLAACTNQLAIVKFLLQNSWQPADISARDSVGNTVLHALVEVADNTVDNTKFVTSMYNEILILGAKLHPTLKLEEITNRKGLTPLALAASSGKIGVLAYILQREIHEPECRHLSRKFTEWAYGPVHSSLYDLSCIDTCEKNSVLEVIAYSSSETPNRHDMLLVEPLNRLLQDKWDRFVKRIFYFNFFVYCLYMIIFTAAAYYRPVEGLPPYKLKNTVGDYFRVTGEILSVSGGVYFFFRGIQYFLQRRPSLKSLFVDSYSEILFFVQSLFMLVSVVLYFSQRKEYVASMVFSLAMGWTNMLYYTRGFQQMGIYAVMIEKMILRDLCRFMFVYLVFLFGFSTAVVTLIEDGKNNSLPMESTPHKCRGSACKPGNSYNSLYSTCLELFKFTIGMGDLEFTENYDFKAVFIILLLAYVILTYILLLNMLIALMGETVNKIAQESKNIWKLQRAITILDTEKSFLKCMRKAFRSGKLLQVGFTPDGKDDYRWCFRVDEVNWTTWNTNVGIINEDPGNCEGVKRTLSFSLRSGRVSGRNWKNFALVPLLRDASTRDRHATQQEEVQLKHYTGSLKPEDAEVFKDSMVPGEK
Sequence of Transient receptor potential cation channel subfamily V member 1 (Rattus norvegicus) (O35433 whole entry): as above

As usually defined, the Ki is a dissociation constant, usually derived from enzyme kinetics or from competition with a known ligand. Turning to `CC(C)(C)C(=O)OC[C@H](CNC(=S)NCc1ccc(NS(C)(=O)=O)cc1)Cc1ccccc1`, the results for the Ki in test [1] and in test [2] were 0.236 µM and 0.0806 µM, respectively. The outcome in test [3] was inactive.
For `CC(C)(C)C(=O)OC[C@@H](CNC(=S)NCc1ccc(NS(C)(=O)=O)cc1)Cc1ccc(C(C)(C)C)cc1`, the Ki in test [1] was found to be 0.064 µM; in test [2], 0.086 µM.
On to `C[C@@H](NC(=S)NC[C@H](COC(=O)C(C)(C)C)Cc1ccc(C(C)(C)C)cc1)c1ccc(NS(C)(=O)=O)cc1`, for which the inhibition constant (Ki) in test [1] was 0.0179 µM. In addition, in test [3], the result was inactive.
Turning to `C[C@H](NC(=S)N[C@H](COC(=O)C(C)(C)C)Cc1ccccc1)c1ccc(NS(C)(=O)=O)cc1`, the outcome in test [3] was inactive.
As for `C[C@@H](NC(=S)NC[C@H](COC(=O)C(C)(C)C)Cc1ccccc1)c1ccc(NS(C)(=O)=O)cc1`, the result in test [3] was inactive.
`Cc1ccc(C[C@H](CNC(=S)N[C@H](C)c2ccc(NS(C)(=O)=O)cc2)COC(=O)C(C)(C)C)cc1C`: the outcome in test [3] was inactive.
In the case of `C[C@@H](NC(=S)NC[C@@H](COC(=O)C(C)(C)C)Cc1ccc(C(C)(C)C)cc1)c1ccc(NS(C)(=O)=O)cc1`, the inhibition constant (Ki) in test [1] was 0.00675 µM. The outcome in test [3] was inactive.
As to `Cc1ccc(C[C@@H](CNC(=S)N[C@H](C)c2ccc(NS(C)(=O)=O)cc2)COC(=O)C(C)(C)C)cc1C`, the inhibitory constant (Ki) in test [1] amounted to 0.00212 µM; in test [2], 0.0132 µM. The result in test [3] was inactive.
Take `Cc1ccc(CC(CNC(=S)N[C@H](C)c2ccc(NS(C)(=O)=O)cc2)COC(=O)C(C)(C)C)cc1C` (stereo not given in full): in test [3], the outcome was inactive.
Take `C[C@H](NC(=S)N[C@@H](COC(=O)C(C)(C)C)Cc1ccccc1)c1ccc(NS(C)(=O)=O)cc1`: in test [3], the result was inactive.
`C[C@@H](NC(=S)NC[C@@H](COC(=O)C(C)(C)C)Cc1ccccc1)c1ccc(NS(C)(=O)=O)cc1`: in test [3], the result was inactive.
Take `C[C@@H](NC(=S)NCC(COC(=O)C(C)(C)C)Cc1ccc(C(C)(C)C)cc1)c1ccc(NS(C)(=O)=O)cc1` (stereo not given in full): in test [3], the outcome was inactive.
Take `C[C@@H](NC(=S)N[C@@H](COC(=O)C(C)(C)C)Cc1ccccc1)c1ccc(NS(C)(=O)=O)cc1`: in test [3], the result was inactive.
In the case of `C[C@H](NC(=S)NC[C@H](COC(=O)C(C)(C)C)Cc1ccccc1)c1ccc(NS(C)(=O)=O)cc1`, the outcome in test [3] was inactive.
Same read-out and setting: to `C[C@@H](NC(=S)N[C@H](COC(=O)C(C)(C)C)Cc1ccccc1)c1ccc(NS(C)(=O)=O)cc1` belongs “inactive”.
Consider `CC(C)(C)C(=O)OC[C@@H](CNC(=S)NCc1ccc(NS(C)(=O)=O)cc1)Cc1ccccc1`, for which the Ki in test [1] was 0.252 µM; in test [2] it was 0.0643 µM. In addition, the result in test [3] was inactive.
`C[C@H](NC(=S)NC[C@@H](COC(=O)C(C)(C)C)Cc1ccccc1)c1ccc(NS(C)(=O)=O)cc1`: the result in test [3] was inactive.
Turning to `CC(NC(=S)NCC(COC(=O)C(C)(C)C)Cc1ccc(C(C)(C)C)cc1)c1ccc(NS(C)(=O)=O)cc1` (racemic), in test [3], the result was inactive.
On to `Cc1ccc(C[C@H](CNC(=S)NCc2ccc(NS(C)(=O)=O)cc2)COC(=O)C(C)(C)C)cc1C`, for which the Ki was 0.0293 µM in test [1] and 0.067 µM in test [2].
Consider `Cc1ccc(CC(CNC(=S)NC(C)c2ccc(NS(C)(=O)=O)cc2)COC(=O)C(C)(C)C)cc1C` (racemic), for which the outcome in test [3] was inactive.
